Key:
Format in all cases: cell-based
Calu-3 (lung cancer) = assay: In vitro cytotoxicity of camptothecin analogues (CellTiter-Glo); details: Homo sapiens, Calu-3, 96 h; 4 d incubation, growth inhibition by CellTiter-Glo; read-out: pIC50 Calu-3 (converted)
Protocol: Cytotoxicity of the camptothecin analogues was assessed in vitro on the following cancer cell lines: SK-BR-3 (breast cancer), SKOV-3 (ovarian cancer), Calu-3 (lung cancer), ZR-75-1 (breast cancer) and MDA-MB-468 (breast cancer).
Briefly, serial dilutions of camptothecin analogues shown in Table 5.1 were prepared in RPMI 1640+10% FBS, and 20 uL of each dilution was added to 384-well plates. Cells cultured in log-phase growth were detached by brief incubation in 0.05% Trypsin and resuspended in respective culturing media at 20,000 cells/mL (with the exception of ZR-75 cells, which were resuspended at 10,000 cells/mL). 50 uL of cell suspension was then added to the plates containing test articles. Cells were incubated with test articles for 4 d at 37° C. (with the exception of ZR-75 cells, which were incubated for 5 d). Growth inhibition was assessed by CellTiter-Glo® (Promega Corporation, Madison, WI) and luminescence was measured on a Synergy™ H1 plate reader (BioTek Instruments, Winooski, VT). IC50 values were determined by GraphPad Prism (GraphPad Software, San Diego, CA).

[1] = system: EBC-1 (lung carcinoma; FRα-negative) spheroids; assay: In vitro cytotoxicity of anti-FRα ADCs, 3D spheroids; details: monoculture spheroids, 6-day treatment
Protocol: (§1) The cytotoxicity capabilities of select ADCs from Example 12 were assessed in a panel of FRα-expressing cell line spheroids as described below. Cell lines used were IGROV-1 (ovarian adenocarcinoma), T-47D (breast carcinoma), OVCAR-3 (ovarian adenocarcinoma), HEC-1-A (uterine adenocarcinoma) and EBC-1 (lung carcinoma; FRα-negative).
(§2) Briefly, cells were seeded in Ultra-Low Attachment 384-well plates, centrifuged and incubated under standard culturing conditions to allow for spheroid formation and growth. Monoculture cell line spheroids were then treated with a titration of test article, generated in cell growth medium. Spheroids were incubated for 6 days under standard culturing conditions. After incubation, CellTiter-Glo® 3D reagent (Promega Corporation, Madison, WI) was spiked in all wells. Plates were incubated in the dark at room temperature for 1 hour and luminescence was quantified using a BioTek Cytation 5 Cell Imaging Multi-Mode Reader (Agilent Technologies, Inc., Santa Clara, CA). Based on blank wells (no test article added), percent cytotoxicity values were calculated and plotted against test article concentration using GraphPad Prism 9 software (GraphPad Software, San Diego, CA).

[2] = system: HEC-1-A (uterine adenocarcinoma) spheroids; assay: as above; details: monoculture spheroids, 6-day treatment
Protocol: as §1, §2

[3] = system: IGROV-1 (ovarian adenocarcinoma) spheroids; assay: as above; details: monoculture spheroids, 6-day treatment
Protocol: as §1, §2

[4] = system: OVCAR-3 (ovarian adenocarcinoma) spheroids; assay: as above; details: monoculture spheroids, 6-day treatment
Protocol: as §1, §2

[5] = system: T-47D (breast carcinoma) spheroids; assay: as above; details: monoculture spheroids, 6-day treatment
Protocol: as §1, §2

Row | Molecule | IC50 (Calu-3 (lung cancer)) | EC50 [1] | EC50 [2] | EC50 [3] | EC50 [4] | EC50 [5]
1 | CC[C@@]1(O)C(=O)OCc2c1cc1n(c2=O)Cc2c-1nc1cc(F)c(OC)cc1c2CNC(=O)NCc1ccc(N)cc1 [Compound 135, (S)-1-(4-aminobenzyl)-3-((4-ethyl-8-fluoro-4-hydroxy-9-methoxy-3,14-dioxo-3,4,12,14-tetrahydro-1H-pyrano[3′,4′: 6,7]indolizino[1,2-b]quinolin-11-yl)methyl)urea] | 25.1 nM | – | – | – | – | –
2 | v21995-MC-GGFG-DXd: "ADCs comprising the antibody palivizumab (v21995) were used as non-targeted controls"; drug-linker MC-GGFG-DXd | – | 24.4 nM | 27.6 nM | 16.7 nM | 46 nM | 17.8 nM

— patent US20240269309A1, “CAMPTOTHECIN ANALOGUES, CONJUGATES AND METHODS OF USE” (priority 2021, published 2024)
